Measurements as given in ChEMBL document CHEMBL3507680, “University of Dundee, Gates Library screen for HepG2 cell viability”.

Assay: Human HepG2 cell viability assay in 384 well format
Type: toxicity, cell-based
Design: dose 125 nL, time 70.5 hour; cytotoxicity at 70.5 h: concentration not given beside the values
Conditions: HepG2 cells, read-out: Inhibition

SMILES | cytotoxicity at 70.5 h [%]
Cc1cc(CNc2ccc(C(F)(F)F)cc2)no1 | -7.03
Cn1cc(CNC2CCOCC2)c(-c2cc3ccccc3o2)n1 | -5.58
CCOc1ccc(C(F)(F)F)cc1NCc1cc(C)on1 | 26.7
Cn1[nH]c(C2CCC2)c(-c2ccc3c(c2)OCO3)c1=N | -3.82
CCOc1ccc(C(F)(F)F)cc1NCc1nc(C)c(C)o1 | -2.62
O=C(Cn1cnnn1)NCC1(O)CCCc2ccccc21 (stereo not drawn) | -6.92
Cn1cc(C(C)(O)CNC(=O)c2cc(Br)cn2C)cn1 (stereo not drawn) | 7.26
COCCN1CCN(Cc2nnc(-c3occc3C)o2)CC1 | -6.39
Cn1cc(Br)cc1C(=O)NCC(C)(O)c1ccsc1 (stereo not drawn) | -9.72
CC(C)N(CCS(C)(=O)=O)Cc1csc(Cc2ccc(Cl)cc2)n1 | 3.51
CC(C)N(CCS(C)(=O)=O)Cc1csc(-c2ccccc2F)n1 | -13.1
O=C(CN1CCOC(Cn2cncn2)C1)NC(C1CC1)C1CC1 (stereo not drawn) | 9.73
c1ccc(N2CCC(NCCc3ccc(-n4cccn4)cc3)CC2)nc1 | 21.5
CSCC(CCO)NC(=O)c1cccc(F)c1Cl (stereo not drawn) | 24.5
Cn1nc(Br)c2c(NCCNc3ncccn3)ncnc21 | -21.3
Cc1cc(S(C)(=O)=O)c(C)c(S(=O)(=O)N2CCCC(C)C2)c1 (stereo not drawn) | -7.71
Cn1nc2c(cc1=O)CN(CCOc1ccccc1C#N)CC2 | 35
CC(C)n1nc2c(cc1=O)CN(CCOc1ccc(C#N)cc1)CC2 | -12.5
COCC(=O)N1CCN(Cc2cc(F)cc(Br)c2)CC1 | -6.59
CCc1n[nH]c(=O)c(C(=O)N2CCSCC2)c1CC | -9.39
Cc1ccc(C(C)NC(=O)N2CCNC(=O)CC2)cc1F (stereo not drawn) | -17.7
Cc1nccn1-c1ccc(C(C)Nc2cnn(C)c(=O)c2Cl)cc1 (stereo not drawn) | 9.7
CCC(NC(=O)NCc1cccc(N(C)C)n1)c1ccccc1OC (stereo not drawn) | -7.5
CCCC(NC(=O)NCc1cccc(N(C)C)n1)c1ccccn1 (stereo not drawn) | -18.8
COCC(NC(=O)c1cn(-c2cccc(Cl)c2F)nn1)C1CC1 (stereo not drawn) | -0.579
COCC(C)(C#N)NC(=O)c1cn(-c2cccc(Cl)c2F)nn1 (stereo not drawn) | -10.4

SMILES | cytotoxicity at 70.5 h [%]
COCCCNC(=O)CN1CCC(c2ccccc2)C1 (stereo not drawn) | -7.32
CSCC(CCO)NC(=O)c1cccc(Cl)c1F (stereo not drawn) | -16.7
COC(=O)CN1CCSC(c2ccccc2)C1 (stereo not drawn) | -13.2
COCCOCC(=O)Nc1cccc(CN(C)C(C)=O)c1 | 27.5
O=C(NCC1CCCO1)c1csc(Cc2ccccc2)n1 (stereo not drawn) | 50.7
COc1ccccc1-c1cc(NC(=O)CC2CCS(=O)(=O)C2)[nH]n1 (stereo not drawn) | -9.57
COCCN1CCN(CC(=O)N(C)Cc2ccsc2)CC1C (stereo not drawn) | -7.6
CS(=O)(=O)CCNCc1ccc(OCc2ccccn2)cc1 | 0.418
C[S+]([O-])CCNCc1ccc(OCc2cscn2)cc1 (stereo not drawn) | 1.77
Cc1ccc(-n2ccnc2)c(C(=O)NCCOCC2CCCO2)c1 (stereo not drawn) | -1.48
CN1CCC(NC(=O)Nc2ccc(F)c(-n3cccc3)c2)C1=O (stereo not drawn) | -12.5
CN1CCC(NC(=O)Nc2ccc(Br)c(F)c2)C1=O (stereo not drawn) | 1.65
CC(C)n1cc2cc(NC(=O)CCS(C)(=O)=O)ccc2n1 | 23.6
O=C1N(CC2CC2)C2(CCSCC2)NC12CCCC2 | 30.4
O=C(c1cccc2cc[nH]c12)N1CCC2(CCOC2)C1 (stereo not drawn) | 1.91
CC(=O)Nc1ccc2nn(C(C)C)cc2c1 | -8.47
CN(C)c1nccc(CNS(=O)(=O)c2ccc(F)c(Cl)c2)n1 | -5.5
Cc1cc(F)c(S(=O)(=O)NCc2ccnc(N(C)C)n2)cc1F | 29.1
COCCN1CCN(CC(=O)N(C)Cc2cccc(F)c2)CC1C (stereo not drawn) | 0.133
O=C(c1cccc2[nH]ccc12)N1CCC2(CCOC2)C1 (stereo not drawn) | 2.34
COCCN1CCN(CC(=O)N(C)Cc2ccsc2)CC1 | -6.03
C1CCC(NCCN2CCOCC2)C1 | 16.9
CCN(CC)C(=O)N1CCN(C2=NCC(C)S2)CC1 (stereo not drawn) | -9.33
COCCOc1ccccc1CNCC1COC2(CCCC2)O1 (stereo not drawn) | 0.252
O=C(COCC1CC1)Nc1cc(-c2ccc(Br)s2)n[nH]1 | -5.77
Cc1cc(C(=O)NCCN2CCCCC2)nn1C(C)(C)C | -18

SMILES | cytotoxicity at 70.5 h [%]
CC(NC(=O)NCc1cccnc1N(C)C)c1ccc(F)cc1 (stereo not drawn) | -23.2
O=C(NCc1cccnc1N1CCCCC1)c1ccc2[nH]nnc2c1 | 41.6
CC(=O)NCC1CCCN(C(=O)Cc2c(C)noc2C)C1 (stereo not drawn) | -22.9
Cc1noc(C)c1CC(=O)N1CCCC(n2ccnc2C)C1 (stereo not drawn) | -15.6
CN(CCc1ccncc1)c1cnn(C)c(=O)c1Br | -24.9
CN(C)c1cc2c(nn1)CCN(C(=O)c1ccc(-n3cccn3)nc1)C2 | -25.2
CNc1cc2c(nn1)CCN(C(=O)c1ccc(-n3cccn3)nc1)C2 | -14.4
CC(CNC(=O)c1cnc[nH]1)Oc1ccc(Cl)cc1 (stereo not drawn) | -22.4
CN(CCNC(=O)Nc1nccs1)Cc1ccc(F)cc1 | -13.1
NC(=O)c1cc(C2CCCN(CCc3ccc4c(c3)CCO4)C2)n[nH]1 (stereo not drawn) | -19
Cc1nc(COc2ccc(N(C)S(C)(=O)=O)cc2)sc1C | 48
Cc1ncsc1C(=O)OCCN1CCCc2ccccc21 | -22.3
Cc1nnc(-c2cccc(C#N)c2)n1C1CCCN(C(C)C)C1=O (stereo not drawn) | -9.5
CN(Cc1cnccn1)c1cncc(Br)c1 | -22
Cc1cc(Cl)c(C)c(S(=O)(=O)N2CCN(Cc3ccccn3)CC2)c1Cl | 40.2
Cc1cc(C(=O)NCCN2CCC(C)CC2)nn1C(C)(C)C | -15.3
Cc1cc(C(=O)NCCN2CCCCCC2)nn1C(C)(C)C | -4.89
COCC(=O)N1CCN(C(C)c2ncc(-c3ccccc3)o2)CC1 (stereo not drawn) | -13.2
COc1ccccc1OC(C)CNC(=O)c1cnc[nH]1 (stereo not drawn) | -21.2
CC(c1ncc(-c2ccccc2)o1)N1CCN(C(=O)C(C)(C)C)CC1 (stereo not drawn) | -25.9
c1ccn2c(C3CCCN3Cc3nc(C4CC4)no3)nnc2c1 (stereo not drawn) | -21.8
COc1c(C2CCCN2Cc2cn3ccsc3n2)c(C)nn1C (stereo not drawn) | -6.12
CC(c1cc(F)ccc1F)N(C)CCS(=O)(=O)CCC(N)=O (stereo not drawn) | -8.99
CC(C)N(CCNC(=O)c1n[nH]c2ccccc12)C(C)C | -7.32
COc1ccc(C(C)N2CCC(C(=O)NC3CC3)CC2)cc1Cl (stereo not drawn) | -7.15
CCC(=O)NC1CCCN(Cc2ccc(-n3ccnc3)cc2)C1 (stereo not drawn) | -4.83

SMILES | cytotoxicity at 70.5 h [%]
O=C(CCc1ccco1)Nc1cccc(S(=O)(=O)C(F)F)c1 | -9.11
O=C(c1ccc2c(c1)[nH]c(=O)n2C1CCCC1)N1CCCSCC1 | -8.62
COc1ccc(C(C)N2CCC(NS(C)(=O)=O)CC2)cc1Cl (stereo not drawn) | 10.5
Cc1nn(C)c(C)c1C1CCCN1Cc1cn2ccsc2n1 (stereo not drawn) | -0.408
COc1cccc(C(O)CN2CCN(C(=O)CCC(C)C)CC2)c1 (stereo not drawn) | 9.11
CC(C)N(CCNC(=O)c1[nH]nc2ccc(I)cc12)C(C)C | -1.97
Cc1cc(C)cc(NC(=O)N(CCC#N)CCCN(C)C)c1 | -5.53
COc1cc(-c2noc(C(CC(C)C)N3CCCCC3=O)n2)ccn1 (stereo not drawn) | -2.9
CC(C)(C#N)C(=O)Nc1nccn1Cc1ccc(Br)cc1 | 11.2
COC1CCN(C(=O)c2nn(-c3ccc(C(C)C)cc3)cc2O)CC1 | 10.9
Cc1nn(C)c(Cl)c1C1CCCN1Cc1cn2ccsc2n1 (stereo not drawn) | -1.16
CC(=O)N1CCCCCC1C1CCN(Cc2nc(C3CC3)no2)CC1 (stereo not drawn) | 0.683
OCC(O)CSCc1cn(-c2ccc(F)c(Cl)c2)nn1 (stereo not drawn) | -7.46
OCC(O)CSCc1cn(-c2ccc(Cl)c(Cl)c2)nn1 (stereo not drawn) | -5.28
Cc1ccc(-c2nc(CN(Cc3ccco3)C3CCS(=O)(=O)C3)cs2)o1 (stereo not drawn) | 15.2
Cc1cc(NC(=O)Cn2ccccc2=O)n(C)n1 | -11.7
O=C(NCc1ccc(Cl)s1)c1ccc(N2CCOC2=O)cc1 | -7.09
CC(NC(=O)CN1CCCC1=O)c1ccc(Cl)s1 (stereo not drawn) | -9.58
CC(NC(=O)NCCCN1CCCC1=O)c1ccc(Cl)s1 (stereo not drawn) | -14.2
N#Cc1ccc(N2CCCN(CC(=O)N3CCC3)CC2)cc1 | -2.99
CCNC(=O)CN(CC)Cc1nc2c(F)cccc2n1CC | 21.7
Cc1cnn(C2CCCN(C(=O)Cn3ccc(=O)n(C)c3=O)C2)c1 (stereo not drawn) | -1.04
Cc1ccccc1C1(CNC(=O)c2cccc(S(C)(=O)=O)c2)CC1 | 20.2
O=C(CCC(=O)c1ccccc1)NC1(C(=O)NCC2CC2)CCCC1 | -9.03
O=C(Cc1cccs1)NC1(C(=O)NCC2CC2)CCCC1 | -7.33
